For two compounds, IC50 results are on record in ChEMBL document CHEMBL3108747, “Synthesis and evaluation of novel cyclic Peptide inhibitors of lysine-specific demethylase 1” (ACS Med Chem Lett, 2014).

One test has as its system MCF7. The test is described as follows: cells. Particulars: Homo sapiens, MCF7, 72 h.
Another test is described as follows: cells. The settings on record: Homo sapiens, Calu-6, 72 h.

Description for MCF7: Cytotoxicity against human MCF7 cells assessed as cell viability after 72 hrs by MTS assay

On to `CSCC[C@H](NC(=O)[C@@H](NC(=O)[C@H](CCCNC(=N)N)NC(=O)[C@H](C)N)[C@@H](C)O)C(=O)N[C@H]1CCCCNC(=O)CC[C@@H](C(=O)N[C@H](C(=O)NCC(=O)NCC(=O)N[C@@H](CCCCN)C(=O)N[C@@H](C)C(=O)N2CCC[C@H]2C(=O)N[C@@H](CCCNC(=N)N)C(=O)N[C@@H](CCCCN)C(=O)N[C@@H](CCC(N)=O)C(=O)N[C@@H](CC(C)C)C(=O)N[C@@H](C)C(N)=O)[C@@H](C)O)NC(=O)[C@H](CCCCN)NC(=O)[C@H](CCCNC(=N)N)NC(=O)[C@H](C)NC(=O)[C@H]([C@@H](C)O)NC1=O`, for which the IC50 (usually the midpoint of a concentration-inhibition curve) turned out to be 157 µM in the test with MCF7 and 125 µM in “cells”.
The compound `N=C(NCCCNCCCCCCCNCCCNC(=N)NC(=N)NCCC(c1ccccc1)c1ccccc1)NC(=N)NCCC(c1ccccc1)c1ccccc1` returned an IC50 in the test “cells” of 10.9 µM.
